Reference: patent US12029716B2, “Derivatives of korormicin useful as antibiotics” (Viotika Life Sciences Inc., priority 2015, dated 2024)
pIC50, pKi: −log10 of the molar value. Converted amounts (≈) assume the structure as drawn. “And” between values parts separate entries of the source, which are not always exact repeats. Equal entries are not always repeated. “Also recorded” adds a separate entry of the source. Where two headings read alike, the source gives them in different places.

What was measured:
[1] = tested on: Escherichia coli; test: Growth of free-living bacteria in liquid medium (OD600); settings: 1.0 to 50 μM
[2] = target: T1, Na^+-NQR (Vibrio cholerae serotype O1, UniProt Q9KPS2); test: Na+-NQR activity (dNADH oxidation) in sub-bacterial V. cholerae vesicles; type: biochemical
T1 construct: being placed in its native membrane; endogenous in cells; sub-bacterial membrane vesicles made by French press

[3] = physchem; type: physicochemical; settings: organic solvent or mixture
[4] = tested on: Enterococcus faecalis; test: Growth of free-living bacteria in liquid medium (OD600); settings: 1.0 to 50 μM
[5] = tested on: HEK293 cells infected with C. trachomatis; test: Intracellular sodium in HEK293 cells infected with C. trachomatis; type: cell-based, human; settings: 1 and 2.5 μM (low μM)
Protocol: (§1) pHrodo™ Green AM and CoroNa Green Sodium Indicator (both Molecular Probes, Invitrogen) were used to measure intracellular pH (pHi) and intracellular sodium (Na^+i) concentration. HEK293 cells were seeded on 24 well plates and infected with C. trachomatis after overnight incubation in DMEM with 5% FBS. After 2 hours of incubation with C. trachomatis cells were treated with different concentrations of PEG-2S and subjected to pHi and Na^+i measurement at different time points according to manufacturer's protocols. In all assessments calibration curves were performed prior to the experiments. Fluorescent inverted microscope (TE-2000s Nikon) was used to obtain images and mean intensity was quantified using NIS Elements imaging software (Nikon, Mississauga, ON).

[6] = tested on: Chlamydia trachomatis; test: C. trachomatis infection of HeLa cells (chlamydial inclusions, immunocytochemistry); type: cell-based; settings: for MCC2, Minimal Chlamydicidal Concentration: after 2 passages with treatment
Protocol: Chlamydia trachomatis (C. trachomatis) propagation and treatment were carried out as follows. C. trachomatis was propagated in HeLa cells. The titer of C. trachomatis was determined in cyclohexamide-treated HeLa cells, and concentrations used were expressed as inclusion forming units (IFU) per mL.
Assessment of the level of infection was determined as follows. HeLa cells were seeded on glass coverslips in 24-well plates at 3×10^4 cells/well and inoculated with C. trachomatis and then treated with antibiotic (or other compounds of interest). After 48 hours, the infected cells were fixed with 100% methanol and then incubated with anti-Chlamydia monoclonal antibody. Inclusion bodies were visualized by staining with FITC-conjugated secondary antibody and DAPI as counterstaining. The samples were examined by a fluorescence microscopy. Number of inclusions was calculated per 100 cells.
Assessment of antichlamydial activity of Korormicin (Scheme shown in FIG. 1) and PEG-2 (Scheme shown in FIG. 2) were performed as follows. Cells were infected with C. trachomatis and treated with different concentrations of antibiotic of choice. After 48 h of C. trachomatis was collected (P1) and used to infect fresh cells. Subsequent collections of C. trachomatis were used to obtain P2, P3, P4 and P5 stocks of C. trachomatis. Dilution of C. trachomatis used to infect cells after treatment with PEG-2 had to be minimized in order to visualize inclusions. Last passage collection of C. trachomatis (P5) of Korormicin treatment and all collected of passages of C. trachomatis treated with PEG-2 were used to establish infectivity of treated Chlamydia (Scheme shown in FIG. 3).
For MIC50 (Minimal Concentration of the antibiotic that inhibits formation of chlamydial inclusions on 50%) determination HeLa cells were grown in 24-well or 96 well plates overnight prior to chlamydial inoculation. Elementary bodies were applied to the cells in small volume of SPG (0.22 M sucrose, 8.6 mM Na2HPO4, 3.8 mM KH2PO4, 5 mM glutamic acid, 0.2 μm-filtered, pH 7.4) and after 2 hours of incubation unattached elementary bodies were removed and infected cells were treated with different concentration of antibiotics in Dulbecco's modified Eagle's medium (DMEM, Invitrogen) with 5% fetal bovine serum (FBS, Invitrogen) in the presence of cycloheximide (1.0 μg/ml). After 42 h inclusions were visualized by immunocytochemistry.
To determent chlamydicidal effect of Korormicin (Scheme 1) and PEG-2 (Scheme 2) Hela cells were infected with C. trachomatis and treated with different concentrations of antibiotics. After 48 h of C. trachomatis was collected (P1) and used to infect fresh cells. Subsequent collections of C. trachomatis were used to obtain P2, P3, P4 and P5 stocks of C. trachomatis. Dilution of C. trachomatis used to infect cells after treatment with PEG-2 had to be minimized in order to visualize inclusions. (See Scheme 2 below). Last passage collection of C. trachomatis (P5) of Korormicin treatment and all collected of passages of C. trachomatis treated with PEG-2 were used to establish infectivity of treated C. trachomatis. Minimal chlamydicidal concentration (MCC2) for Korormicin, PEG-2 and PEG-2S was calculated after 2 passages of infection with treatment and reflect inhibition of infection for more than 90%. In all experiments inclusions were visualized by immunocytochemistry.
Cells were seeded on glass coverslips in 24-well plates (2-4×10^4 cells/well) or on glass-bottom 96 well plates (10^4 cells/well), and after overnight inoculated with C. trachomatis. After 42 hours, the infected cells were fixed with 90% acetone (or 100% methanol in case of 96 well plates) and then incubated with anti-Chlamydia antibody (Thermo Fisher Scientific). Alexa Fluor 488-conjugated anti-rabbit IgG (Molecular Probes) was used as secondary antibody. DAPI staining solution (300 nM) was added to the coverslips to identify nuclei. […]

[7] = tested on: Lactococcus lactis; test: Growth of free-living bacteria in liquid medium (OD600); settings: 1.0 to 50 μM
[8] = tested on: primary Vascular Smooth Muscle cells; test: Cell toxicity / proliferation assay, primary vascular smooth muscle cells; type: cell-based, human; settings: for toxicity to primary cells (in words): primary Vascular Smooth Muscle cells
Protocol: (§2) Cell Toxicity Assay was performed as follows. HeLa, HEK293 and primary VSM cells were seeded at 5×10^3 cells/well in 96-well plates and incubated with Korormicin, PEG-2 or homoserine lactones in DMEM containing 1% fetal bovine serum (FBS; Invitrogen Corp.). After 48 hours, the number of living cells was determined by a colorimetric enzyme assay, based on a cytoplasmic enzyme activity present in viable cells.
Cells were seeded at 5×10^3 cells/well in 96-well plates and incubated with C. trachomatis in DMEM containing 1% fetal bovine serum (FBS; Invitrogen Corp.). After 48 hours, the number of living cells was determined by a colorimetric enzyme assay (CellTiter 96 Cell Proliferation Assay; Promega Corporation, Madison, WI) based on a cytoplasmic enzyme activity present in viable cells. (Cory et al. Use of an aqueous soluble tetrazolium/formazan assay for cell growth assays in culture. Cancer Commun. 1991; 3:207-212). The absorbance of a formazan product in tissue culture media was measured at 500 nm using a microplate reader.

[9] = tested on: C. difficile ATCC 700057; test: Susceptibility test of Clostridium difficile growth; type: cell-based; settings: 0.5 μM-50 μM
Protocol: Evaluation of a PEG-2S against Clostridium difficile (C. difficile ATCC 700057) was performed by Drop method on pre-reduced BAK plates according to Performance Standards for Antimicrobial Susceptibility Testing (Methods for Antimicrobial Susceptibility Testing of Anaerobic Bacteria; Approved Standard—Eighth Edition; Volume 32 Number 5, 2012).

[10] = tested on: HEK293 cells infected with C. trachomatis; test: Intracellular pH in HEK293 cells infected with C. trachomatis; type: cell-based, human
Protocol: as §1

[11] = tested on: HeLa cell line; test: Cell toxicity assay, HeLa cells; type: cell-based, human
Protocol: as §2

[12] = target: Na^+-NQR; settings: cited from earlier work
[13] = Chlamydia trachomatis, HeLa, cell culture experimental model, read-out: IC50(Chl), half-maximal inhibition of the proliferation of Chlamydia trachomatis

SMILES: CCCCCCC/C=C/C=C\[C@H](O)CC(=O)NC1=C[C@](C)(CC)OC1=O [PEG-2S]
- effect on growth [1]: did not affect the growth
- pIC50 [2]: 8.75
- solubility [3]: < 25 mM
- effect on growth [4]: did not affect the growth
- effect on intracellular sodium accumulation / changes of [Na+] [5]: sensitive; also recorded: prevents changes
- pIC50 ([6]; Chlamydia trachomatis, HeLa, read-out: IC50(Chl), half-maximal inhibition of the proliferation of Chlamydia trachomatis, cell culture experimental model): 6.15
- MCC2, Minimal Chlamydicidal Concentration [6]: 0.36 µg/mL
- MCC2, Minimal Chlamydicidal Concentration ([6]; inhibition of infection for more than 90%): 1.0 µM
- MIC501, Minimal Inhibitory Concentration after the treatment ([6]; first treatment): 0.25 µg/mL (≈ 0.688 µM)
- pIC50 ([6]; read-out: MIC502, Minimal Inhibitory Concentration after the second treatment, second treatment): 6.60
- MIC502, Minimal Inhibitory Concentration after the second treatment ([6]; second treatment): 0.09 µg/mL (≈ 0.248 µM)
- effect on growth [7]: did not affect the growth
- toxicity to primary cells (in words) [8]: low cytotoxicity
- effect on growth [9]: does not affect the growth
- internal pH of infected cells ([10]; 1.0 μM, within first 5 hours of infection): ~7.6
- effect on chlamydia-induced acidification ([10]; 2.5 μM): prevented the chlamydia-induced acidification completely
- effect on changes of cytoplasmic pH ([10]; 1 and 2.5 μM): prevents changes of cytoplasmic pH

SMILES: CCCCCCCCCCC[C@H](O)CC(=O)NC1=C[C@](C)(CC)OC1=O [PEG-11]
- solubility [3]: > 50 mM
- pIC50 [6, 13]: 6.20

SMILES: CCCCCC(=O)N[C@H]1CCOC1=O [N-hexanoyl-L-Homoserine lactone]
- Cytotoxicity on HeLa cell line ([11]; 12.5 μM): no
- Cytotoxicity on HeLa cell line ([11]; 25 μM): no
- Cytotoxicity on HeLa cell line ([11]; 50 μM): no
- Cytotoxicity on HeLa cell line ([11]; 100 μM): no
- Anti-Chlamydial effect ([6]; 12.5 μM): no
- Anti-Chlamydial effect ([6]; 25 μM): no
- Anti-Chlamydial effect ([6]; 50 μM): No
- Anti-Chlamydial effect ([6]; 100 μM): no

SMILES: CC[C@@]1(C)C=C(NC(=O)C[C@@H](O)/C=C\I)C(=O)O1 [PEG-10]
- solubility [3]: > 50 mM
- pIC50 [6, 13]: 6.17

SMILES: CCCCCCCC[C@H]1O[C@H]1C/C=C/C=C\[C@H](O)CC(=O)NC1=C[C@](C)(CC)OC1=O [Korormicin, (3R,4Z,6E)-N-[(5S)-5-Ethyl-5-methyl-2-oxo-2,5-dihydro-3-furanyl]-3-hydroxy-8-[(2S,3R)-3-octyl-2-oxiranyl]-4,6-octadienamide]
- efficacy against C. trachomatis infection (in words) [6]: effective
- number of inclusions, of control ([6]; 5 consecutive treatments, 15 μM): 4.8%
- IC50 ([6]; Chlamydia trachomatis, HeLa, read-out: MIC501, Minimal Inhibitory Concentration after the treatment, first treatment): 8.28 µg/mL
- pIC50 ([6]; Chlamydia trachomatis, HeLa, read-out: MIC501, Minimal Inhibitory Concentration after the treatment, first treatment, 50% inhibition of inclusion formation): 4.74
- IC50 ([6]; Chlamydia trachomatis, HeLa, read-out: MIC502, Minimal Inhibitory Concentration after the second treatment, second treatment): 10 µM and 4.6 µg/mL
- concentration effective against C. trachomatis ([6]; cell culture models): 10 to 20 µM
- number of chlamydial inclusions, of control ([6]; five consecutive treatments, 20 μM): less than 2%
- lowering of the cell titer ([8]; VSMC proliferation, 5 to 15 μM): ~10%
- toxicity to primary cells (in words) [8]: toxic
- pKi ([12]; isolated Na+-NQR, listed as korormicin, read-out: inhibitor constant (Ki) of quinone reduction by Na+-NQR): ~10.10
- pKi ([12]; isolated Na+-NQR, read-out: inhibitor constant (Ki) of quinone reduction by Na+-NQR): 10.09
- pKi ([12]; preparations of isolated enzyme, read-out: Ki): ~10.10

SMILES: CCCCCCCCCC(=O)CC(=O)N[C@H]1CCOC1=O [N-3-oxo-dodecanoyl-L-Homoserine lactone]
- Cytotoxicity on HeLa cell line ([11]; 12.5 μM): yes
- Cytotoxicity on HeLa cell line ([11]; 25 μM): yes
- Cytotoxicity on HeLa cell line ([11]; 50 μM): yes
- Cytotoxicity on HeLa cell line ([11]; 100 μM): yes
- toxicity to human cells (in words) ([11]; HeLa): highly toxic

SMILES: CC[C@@]1(C)C=C(NC(=O)C[C@@H](O)/C=C\C=C\CCCCCCN(C)C(=O)OC(C)(C)C)C(=O)O1 [PEG-6(Boc)]
- solubility [3]: > 50 mM
- pIC50 [6, 13]: 6.02

SMILES: CCCCCCC/C=C/C=C\CCC(=O)NC1=C[C@](C)(CC)OC1=O [PEG-14]
- solubility [3]: > 50 mM
- pIC50 [6, 13]: 5.92

SMILES: CCCCCCCc1cc(O)c2ccccc2[n+]1[O-] [HQNO, 2-n-heptyl-4-hydroxyquinoline N-oxide]
- pIC50 [2]: 6.89
- pKi ([12]; read-out: Ki for Na+-NQR): 6.52

SMILES: CCCCCCCCCC(=O)N[C@H]1CCOC1=O [N-decanoyl-L-Homoserine lactone]
- Cytotoxicity on HeLa cell line ([11]; 12.5 μM): no
- Cytotoxicity on HeLa cell line ([11]; 25 μM): no
- Cytotoxicity on HeLa cell line ([11]; 50 μM): no
- Cytotoxicity on HeLa cell line ([11]; 100 μM): no
- Anti-Chlamydial effect ([6]; 12.5 μM): no
- Anti-Chlamydial effect ([6]; 25 μM): no
- Anti-Chlamydial effect ([6]; 50 μM): no
- Anti-Chlamydial effect ([6]; 100 μM): no

SMILES: CCCC(=O)N[C@H]1CCOC1=O [N-butyryl-L-Homoserine lactone]
- Cytotoxicity on HeLa cell line ([11]; 12.5 μM): no
- Cytotoxicity on HeLa cell line ([11]; 25 μM): no
- Cytotoxicity on HeLa cell line ([11]; 50 μM): no
- Cytotoxicity on HeLa cell line ([11]; 100 μM): no
- Anti-Chlamydial effect ([6]; 12.5 μM): no
- Anti-Chlamydial effect ([6]; 25 μM): no
- Anti-Chlamydial effect ([6]; 50 μM): No
- Anti-Chlamydial effect ([6]; 100 μM): no
